According to PubChem BioAssay (NCI):
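All cell lines were grown in 96-well plates and treated with compound for 48 hours. The concentration for full growth arrest is given as TGI.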

Tests used:
Test in all cases: NCI anticancer screen, dose series, 48 h
786-0 renal = tested on: 786-0 renal
A549 NSCLC = tested on: A549 NSCLC
ACHN renal = tested on: ACHN renal
CCRF-CEM leukemia = tested on: CCRF-CEM leukemia
COLO 205 colon = tested on: COLO 205 colon
DLD-1 colon = tested on: DLD-1 colon
DMS 114 small cell lung = tested on: DMS 114 small cell lung
EKVX NSCLC = tested on: EKVX NSCLC
HCC-2998 colon = tested on: HCC-2998 colon
HCT-116 colon = tested on: HCT-116 colon
HCT-15 colon = tested on: HCT-15 colon
HL-60(TB) leukemia = tested on: HL-60(TB) leukemia
HOP-18 NSCLC = tested on: HOP-18 NSCLC
HOP-62 NSCLC = tested on: HOP-62 NSCLC
HOP-92 NSCLC = tested on: HOP-92 NSCLC
HT29 colon = tested on: HT29 colon
IGROV1 ovarian = tested on: IGROV1 ovarian
K-562 leukemia = tested on: K-562 leukemia
KM12 colon = tested on: KM12 colon
KM20L2 colon = tested on: KM20L2 colon
LOX IMVI melanoma = tested on: LOX IMVI melanoma
LXFL 529 NSCLC = tested on: LXFL 529 NSCLC
M14 melanoma = tested on: M14 melanoma
M19-MEL melanoma = tested on: M19-MEL melanoma
MALME-3M melanoma = tested on: MALME-3M melanoma
MOLT-4 leukemia = tested on: MOLT-4 leukemia
NCI-H226 lung = tested on: NCI-H226 lung
NCI-H23 lung = tested on: NCI-H23 lung
NCI-H460 lung = tested on: NCI-H460 lung
NCI-H522 lung = tested on: NCI-H522 lung
OVCAR-3 ovarian = tested on: OVCAR-3 ovarian
OVCAR-5 ovarian = tested on: OVCAR-5 ovarian
OVCAR-8 ovarian = tested on: OVCAR-8 ovarian
RPMI-8226 leukemia = tested on: RPMI-8226 leukemia
RXF 393 renal = tested on: RXF 393 renal
RXF-631 renal = tested on: RXF-631 renal
SF-268 CNS = tested on: SF-268 CNS
SF-295 CNS = tested on: SF-295 CNS
SF-539 CNS = tested on: SF-539 CNS
SK-MEL-28 melanoma = tested on: SK-MEL-28 melanoma
SK-MEL-5 melanoma = tested on: SK-MEL-5 melanoma
SK-OV-3 ovarian = tested on: SK-OV-3 ovarian
SN12C renal = tested on: SN12C renal
SNB-19 CNS = tested on: SNB-19 CNS
SNB-75 CNS = tested on: SNB-75 CNS
SR leukemia = tested on: SR leukemia
SW-620 colon = tested on: SW-620 colon
TK-10 renal = tested on: TK-10 renal
U251 CNS = tested on: U251 CNS
UACC-257 melanoma = tested on: UACC-257 melanoma
UACC-62 melanoma = tested on: UACC-62 melanoma
UO-31 renal = tested on: UO-31 renal
A498 renal = tested on: A498 renal
CAKI-1 renal = tested on: CAKI-1 renal
DMS 273 small cell lung = tested on: DMS 273 small cell lung
OVCAR-4 ovarian = tested on: OVCAR-4 ovarian
SK-MEL-2 melanoma = tested on: SK-MEL-2 melanoma
SNB-78 CNS = tested on: SNB-78 CNS
XF 498 CNS = tested on: XF 498 CNS

COc1cc2c(cc1OC)-c1c(cc(OC)c(OC)c1OC)C2=O
TGI (786-0 renal): > 100 µM
TGI (A549 NSCLC): > 100 µM
TGI (ACHN renal): > 100 µM
TGI (CCRF-CEM leukemia): > 100 µM
TGI (COLO 205 colon): > 100 µM
TGI (DLD-1 colon): > 100 µM
TGI (DMS 114 small cell lung): > 100 µM
TGI (EKVX NSCLC): > 100 µM
TGI (HCC-2998 colon): > 100 µM
TGI (HCT-116 colon): > 100 µM
TGI (HCT-15 colon): > 100 µM
TGI (HL-60(TB) leukemia): > 100 µM
TGI (HOP-18 NSCLC): > 100 µM
TGI (HOP-62 NSCLC): > 100 µM
TGI (HOP-92 NSCLC): > 100 µM
TGI (HT29 colon): > 100 µM
TGI (IGROV1 ovarian): > 100 µM
TGI (K-562 leukemia): > 100 µM
TGI (KM12 colon): > 100 µM
TGI (KM20L2 colon): > 100 µM
TGI (LOX IMVI melanoma): > 100 µM
TGI (LXFL 529 NSCLC): > 100 µM
TGI (M14 melanoma): > 100 µM
TGI (M19-MEL melanoma): > 100 µM
TGI (MALME-3M melanoma): > 100 µM
TGI (MOLT-4 leukemia): > 100 µM
TGI (NCI-H226 lung): > 100 µM
TGI (NCI-H23 lung): > 100 µM
TGI (NCI-H460 lung): > 100 µM
TGI (NCI-H522 lung): > 100 µM
TGI (OVCAR-3 ovarian): > 100 µM
TGI (OVCAR-5 ovarian): > 100 µM
TGI (OVCAR-8 ovarian): > 100 µM
TGI (RPMI-8226 leukemia): > 100 µM
TGI (RXF 393 renal): > 100 µM
TGI (RXF-631 renal): > 100 µM
TGI (SF-268 CNS): > 100 µM
TGI (SF-295 CNS): > 100 µM
TGI (SF-539 CNS): > 100 µM
TGI (SK-MEL-28 melanoma): > 100 µM
TGI (SK-MEL-5 melanoma): > 100 µM
TGI (SK-OV-3 ovarian): > 100 µM
TGI (SN12C renal): > 100 µM
TGI (SNB-19 CNS): > 100 µM
TGI (SNB-75 CNS): 95.5 µM
TGI (SR leukemia): > 100 µM
TGI (SW-620 colon): > 100 µM
TGI (TK-10 renal): > 100 µM
TGI (U251 CNS): > 100 µM
TGI (UACC-257 melanoma): > 100 µM
TGI (UACC-62 melanoma): > 100 µM
TGI (UO-31 renal): > 100 µM

COc1ccc(C(=O)C(C(=O)C(=O)Nc2nc3ccc(OC)cc3s2)c2ccc(OC)cc2)cc1 (configuration not stated)
TGI (786-0 renal): > 100 µM
TGI (A498 renal): > 100 µM
TGI (A549 NSCLC): > 100 µM
TGI (ACHN renal): > 100 µM
TGI (CAKI-1 renal): > 100 µM
TGI (CCRF-CEM leukemia): > 100 µM
TGI (COLO 205 colon): > 100 µM
TGI (DLD-1 colon): > 100 µM
TGI (DMS 114 small cell lung): > 100 µM
TGI (DMS 273 small cell lung): > 100 µM
TGI (EKVX NSCLC): > 100 µM
TGI (HCC-2998 colon): > 100 µM
TGI (HCT-15 colon): > 100 µM
TGI (HL-60(TB) leukemia): > 100 µM
TGI (HOP-18 NSCLC): > 100 µM
TGI (HOP-62 NSCLC): > 100 µM
TGI (HOP-92 NSCLC): > 100 µM
TGI (HT29 colon): > 100 µM
TGI (IGROV1 ovarian): > 100 µM
TGI (K-562 leukemia): > 100 µM
TGI (KM12 colon): > 100 µM
TGI (KM20L2 colon): > 100 µM
TGI (LOX IMVI melanoma): > 100 µM
TGI (LXFL 529 NSCLC): > 100 µM
TGI (M14 melanoma): > 100 µM
TGI (M19-MEL melanoma): > 100 µM
TGI (MALME-3M melanoma): > 100 µM
TGI (MOLT-4 leukemia): > 100 µM
TGI (NCI-H226 lung): > 100 µM
TGI (NCI-H23 lung): > 100 µM
TGI (NCI-H460 lung): > 100 µM
TGI (OVCAR-3 ovarian): > 100 µM
TGI (OVCAR-4 ovarian): > 100 µM
TGI (OVCAR-5 ovarian): > 100 µM
TGI (OVCAR-8 ovarian): > 100 µM
TGI (RPMI-8226 leukemia): > 100 µM
TGI (RXF-631 renal): > 100 µM
TGI (SF-268 CNS): > 100 µM
TGI (SF-295 CNS): > 100 µM
TGI (SF-539 CNS): > 100 µM
TGI (SK-MEL-2 melanoma): > 100 µM
TGI (SK-MEL-28 melanoma): > 100 µM
TGI (SK-MEL-5 melanoma): > 100 µM
TGI (SK-OV-3 ovarian): > 100 µM
TGI (SN12C renal): > 100 µM
TGI (SNB-19 CNS): > 100 µM
TGI (SNB-75 CNS): > 100 µM
TGI (SNB-78 CNS): > 100 µM
TGI (SW-620 colon): > 100 µM
TGI (TK-10 renal): > 100 µM
TGI (U251 CNS): > 100 µM
TGI (UACC-257 melanoma): > 100 µM
TGI (UACC-62 melanoma): > 100 µM
TGI (UO-31 renal): > 100 µM
TGI (XF 498 CNS): > 100 µM

Fc1cccc(F)c1C1SCc2nc3ccccc3n21 (configuration not stated)
TGI (786-0 renal): > 100 µM
TGI (A498 renal): > 100 µM
TGI (A549 NSCLC): > 100 µM
TGI (ACHN renal): > 100 µM
TGI (CAKI-1 renal): > 100 µM
TGI (CCRF-CEM leukemia): > 100 µM
TGI (COLO 205 colon): > 100 µM
TGI (DLD-1 colon): > 100 µM
TGI (DMS 273 small cell lung): > 100 µM
TGI (EKVX NSCLC): > 100 µM
TGI (HCC-2998 colon): > 100 µM
TGI (HCT-116 colon): > 100 µM
TGI (HCT-15 colon): > 100 µM
TGI (HL-60(TB) leukemia): 82.7 µM
TGI (HOP-18 NSCLC): > 100 µM
TGI (HOP-62 NSCLC): > 100 µM
TGI (HOP-92 NSCLC): 95.3 µM
TGI (HT29 colon): > 100 µM
TGI (IGROV1 ovarian): > 100 µM
TGI (K-562 leukemia): > 100 µM
TGI (KM12 colon): > 100 µM
TGI (KM20L2 colon): > 100 µM
TGI (LOX IMVI melanoma): > 100 µM
TGI (LXFL 529 NSCLC): > 100 µM
TGI (M14 melanoma): > 100 µM
TGI (M19-MEL melanoma): > 100 µM
TGI (MALME-3M melanoma): > 100 µM
TGI (MOLT-4 leukemia): > 100 µM
TGI (NCI-H226 lung): > 100 µM
TGI (NCI-H23 lung): > 100 µM
TGI (NCI-H460 lung): > 100 µM
TGI (NCI-H522 lung): > 100 µM
TGI (OVCAR-3 ovarian): > 100 µM
TGI (OVCAR-4 ovarian): > 100 µM
TGI (OVCAR-5 ovarian): > 100 µM
TGI (OVCAR-8 ovarian): > 100 µM
TGI (RPMI-8226 leukemia): > 100 µM
TGI (RXF 393 renal): > 100 µM
TGI (SF-268 CNS): > 100 µM
TGI (SF-295 CNS): > 100 µM
TGI (SF-539 CNS): > 100 µM
TGI (SK-MEL-2 melanoma): > 100 µM
TGI (SK-MEL-5 melanoma): 75.4 µM
TGI (SK-OV-3 ovarian): > 100 µM
TGI (SN12C renal): > 100 µM
TGI (SNB-19 CNS): > 100 µM
TGI (SNB-75 CNS): > 100 µM
TGI (SNB-78 CNS): > 100 µM
TGI (SW-620 colon): > 100 µM
TGI (TK-10 renal): > 100 µM
TGI (U251 CNS): > 100 µM
TGI (UACC-257 melanoma): > 100 µM
TGI (UACC-62 melanoma): > 100 µM
TGI (UO-31 renal): > 100 µM
TGI (XF 498 CNS): > 100 µM
